US10375956B2, “Herbicidally active 2-(substituted-phenyl)-cyclopentane-1,3-dione compounds and derivatives thereof” (Syngenta Limited, priority 2013, dated 2019)

How the values were obtained:
Assay type in all cases: in vivo
Setaria faberi (SETFA) [1] = experiment: Biological Example 3 glasshouse assay, post-emergence, various adjuvant systems; settings: 8 g/ha; for percentage control of Setaria faberi: adjuvant 0.5% v/v TEHP + 1.0% v/v AMS + 12.5% v/v IPA; for percentage control of (phytotoxicity on) Setaria faberi (SETFA): adjuvant 0.5% v/v Hexamoll DINCH + 1.0% v/v AMS + 12.5% v/v IPA
Procedure: Post-emergence foliar spray application, 200 L/ha, usually one or two replicates for the weeds (depending on application rate), and two replicates for soybean.
Standard warm conditions (tropical), in glasshouse. Specifically, the glasshouse bay conditions are 24° C./18° C. day/night; 16/8 hours light/dark; 65% humidity.
The herbicidal application takes place at the following growth stages for plants which include inter alia one or more of the following plants (usually the herbicidal application takes place on at least the following plants: DIGSA, ELEIN, SETFA, ZEAMX, GLXMA Nikko, and GLXMA TMG133, and often also either BRADC or BRAPP):
Setaria faberi (SETFA)—growth stage 12 or 13
Each test compound is applied with one of the following adjuvant systems (all percentages are final concentrations in the aqueous spray mixture):
Adjuvant system 2: 0.5% v/v Hexamoll™ DINCH**, 1.0% v/v AMS (ammonium sulphate) and 12.5% v/v IPA (isopropyl alcohol).
Adjuvant system 3: 0.5% v/v tris-(2-ethylhexyl)phosphate (“TEHP”), 1.0% v/v AMS (ammonium sulphate) and 12.5% v/v IPA (isopropyl alcohol).
Seeds of the weed (including volunteer) plants, typically including inter alia Digitaria sanguinalis (DIGSA), Eleusine indica (ELEIN), Setaria faberi (SETFA), Zea mays (ZEAMX, corn), and sometimes also [either Brachiaria decumbens (BRADC) or Brachiaria platyphylla (BRAPP)], are sown in seed trays (troughs) containing clay loam soil (pH 7.0, 2.2% organic matter, “Trough Mix A”); and soybean seed is sown in pots containing the same soil with 3 soybean seedlings per pot. The plants are sprayed with the test herbicide when they reach the growth stages mentioned above.
The test herbicidal solutions are prepared by mixing the appropriate aliquots of the test substance(s) and one of the adjuvant systems indicated above *** in deionised water to give the desired treatment concentration.
The herbicidal application is made as a foliar spray, using a tracksprayer. Following the herbicidal application, the plants are watered twice per day for the duration of the test.
A visual assessment of the % herbicidal damage is made 7 and 14 Days After herbicide Application (DAA) (or, in a minority of cases, 7 and 15 DAA), and the results are recorded as % visual herbicidal damage where 0%=no damage to plants and 100%=plant totally killed.
Compounds A2 and A7 were tested using the 0.5% v/v Hexamoll™ DINCH™+1.0% v/v AMS+12.5% v/v IPA adjuvant system. Compounds A11, A12, A14, A20 and A21 were tested using the 0.5% v/v tris-(2-ethylhexyl)phosphate (“TEHP”)+1.0% v/v AMS+12.5% v/v IPA adjuvant system.
The percentages of herbicidal damage/plant control, at 14 Days After herbicide Application (DAA) (or, in some cases, at 15 DAA), for the Compounds tested and for some of the plants tested, were in the following percentage ranges. For the tested compounds, the phytotoxicity results shown herein are generally the average of 2 or 3 repetitions (for the grassy weeds including corn) or the average of 2 repetitions (for soybean for most of the tested compounds). However, for Compound A2 on soybean there was 1 repetion only.

Setaria faberi (SETFA) [2] = experiment: Test 2 glasshouse assay (IF50 formulation, X-77), post-emergence herbicidal activity; settings: 360 h, 15 DAA, visual score, read-out: Post-emergence herbicidal activity (percentage phytotoxicity) SETFA; for pest or weed control at 30 g/ha: application rate 30 g/ha; for pest or weed control at 250 g/ha: application rate 250 g/ha; for pest or weed control at 125 g/ha: application rate 125 g/ha
Procedure: (§1) Seeds of a variety of monocotyledonous and dicotyledonous test plants are sown in standard soil in pots. The plants are cultivated for one day (for pre-emergence) or for about 12 days (for post-emergence) under controlled conditions in a glasshouse (warm climate species at 24/18° C., cool climate species at 20/16° C., both at day/night; 16 hours light; 65% humidity).
(§2) An “instant formulation”, known as the “IF50”, containing 50 g/liter (i.e. 5% w/v) of the “technical” (i.e. unformulated) active ingredient is prepared by dissolving the active ingredient in a mixture of organic solvents and emulsifier, details of which are provided in the Table below. This IF50 is then mixed with a small, variable amount of acetone to aid dissolution, before addition of a 0.2% v/v aqueous solution of the adjuvant X-77 (which is a mixture of alkyl aryl polyoxyethylene glycols and free fatty acids in isopropanol, CAS Registry number 11097-66-8), as the aqueous diluent, to form an aqueous spray solution which contains a predetermined concentration of the active ingredient (which varies depending on the application rate of the active ingredient to the plants) and 0.2% v/v of the adjuvant X-77. This aqueous spray solution is then sprayed onto the plants, after one day's cultivation (for pre-emergence), or after about 12 days' cultivation (range=10-13 days) (for post-emergence).
(§3) The test plants are then grown on, in a glasshouse (greenhouse) under controlled conditions (warm climate species at 24/18° C., cool climate species at 20/16° C., both at day/night; 16 hours light; 65% humidity) and are watered twice daily. 15 days after application of the test herbicide (15DAA) (for post-emergence), and 20 days after application of the test herbicide (20DAA) (for pre-emergence), the test plants are evaluated visually, and an assessed percentage phytotoxicity score is given for each herbicidal application on each plant species (with 100%=total damage to plant; 0%=no damage to plant).
(§4) Warm climate (“warm season”) grassy monocotyledonous weeds: Setaria faberi (SETFA), Panicum miliaceum (PANMI), Sorghum vulgare Pers. (SORVU) (or Sorghum bicolor (L) Moench ssp. Bicolor), Digitaria sanguinalis (DIGSA), Echinochloa crus-galli (ECHCG), and Brachiaria plantaginea (BRAPL).

[3] = test system: Echinochloa crus-galli (ECHCG); experiment: as above; settings: 360 h, 15 DAA, visual score, read-out: Post-emergence herbicidal activity (percentage phytotoxicity) ECHCG; for pest or weed control at 30 g/ha: application rate 30 g/ha; for pest or weed control at 250 g/ha: application rate 250 g/ha; for pest or weed control at 125 g/ha: application rate 125 g/ha
Procedure: as §1, §2, §3, §4

[4] = test system: Panicum miliaceum (PANMI); experiment: as above; settings: 360 h, 15 DAA, visual score, read-out: Post-emergence herbicidal activity (percentage phytotoxicity) PANMI; for pest or weed control at 30 g/ha: application rate 30 g/ha; for pest or weed control at 250 g/ha: application rate 250 g/ha; for pest or weed control at 125 g/ha: application rate 125 g/ha
Procedure: as §1, §2, §3, §4

[5] = test system: Digitaria sanguinalis (DIGSA); experiment: as above; settings: 360 h, 15 DAA, visual score, read-out: Post-emergence herbicidal activity (percentage phytotoxicity) DIGSA; for pest or weed control at 30 g/ha: application rate 30 g/ha; for pest or weed control at 250 g/ha: application rate 250 g/ha; for pest or weed control at 125 g/ha: application rate 125 g/ha
Procedure: as §1, §2, §3, §4

[6] = test system: Brachiaria plantaginea (BRAPL); experiment: as above; settings: Urochloa plantaginea, 360 h, 15 DAA, visual score, read-out: Post-emergence herbicidal activity (percentage phytotoxicity) BRAPL; for pest or weed control at 30 g/ha: application rate 30 g/ha; for pest or weed control at 250 g/ha: application rate 250 g/ha; for pest or weed control at 125 g/ha: application rate 125 g/ha
Procedure: as §1, §2, §3, §4

[7] = test system: Sorghum vulgare Pers. (SORVU); experiment: as above; settings: Sorghum bicolor, 360 h, 15 DAA, visual score, read-out: Post-emergence herbicidal activity (percentage phytotoxicity) SORVU; for pest or weed control at 30 g/ha: application rate 30 g/ha; for pest or weed control at 250 g/ha: application rate 250 g/ha; for pest or weed control at 125 g/ha: application rate 125 g/ha
Procedure: as §1, §2, §3, §4

C#CCC1CC(=O)C(c2c(Cl)cc(-c3ccc(Cl)cc3)cc2OC)C1=O (stereo not shown) [Compound A11, 2-[2-chloro-4-(4-chlorophenyl)-6-methoxyphenyl]-4-prop-2-ynylcyclopentane-1,3-dione]
100%: pest or weed control at 250 g/ha (Setaria faberi (SETFA) [2]) | pest or weed control at 30 g/ha [3] | pest or weed control at 250 g/ha [3] | pest or weed control at 30 g/ha [4] | pest or weed control at 250 g/ha [4] | pest or weed control at 30 g/ha [5] | pest or weed control at 250 g/ha [5] | pest or weed control at 30 g/ha [6] | pest or weed control at 250 g/ha [6] | pest or weed control at 30 g/ha [7] | pest or weed control at 250 g/ha [7]
80%: pest or weed control at 30 g/ha (Setaria faberi (SETFA) [2])
98%: percentage control of Setaria faberi (Setaria faberi (SETFA) [1]; 14 DAA)

C#CCC1CC(=O)C(c2c(Cl)cc(-c3ccc(F)cc3)cc2OC)C1=O (stereo not shown) [Compound A7]
91.7%: percentage control of (phytotoxicity on) Setaria faberi (SETFA) (Setaria faberi (SETFA) [1]; 14 DAA)
90%: pest or weed control at 30 g/ha (Setaria faberi (SETFA) [2])
100%: pest or weed control at 250 g/ha (Setaria faberi (SETFA) [2]) | pest or weed control at 30 g/ha [3] | pest or weed control at 250 g/ha [3] | pest or weed control at 30 g/ha [4] | pest or weed control at 250 g/ha [4] | pest or weed control at 30 g/ha [5] | pest or weed control at 250 g/ha [5] | pest or weed control at 30 g/ha [6] | pest or weed control at 250 g/ha [6] | pest or weed control at 30 g/ha [7] | pest or weed control at 250 g/ha [7]

C#CCC1CC(=O)C(c2c(F)cc(-c3ccc(Cl)cc3)cc2OC)C1=O (stereo not shown) [Compound A14]
60%: pest or weed control at 125 g/ha [4]
30%: pest or weed control at 125 g/ha [6]
100%: pest or weed control at 125 g/ha [3] | pest or weed control at 125 g/ha [5] | pest or weed control at 125 g/ha [7]
90%: pest or weed control at 125 g/ha (Setaria faberi (SETFA) [2])
95%: percentage control of Setaria faberi (Setaria faberi (SETFA) [1]; 15 DAA)

C#CCC1CC(=O)C(c2c(F)cc(-c3ccc(F)cc3)cc2OC)C1=O (stereo not shown) [Compound A20, 2-[2-fluoro-4-(4-fluorophenyl)-6-methoxyphenyl]-4-prop-2-ynylcyclopentane-1,3-dione]
90%: percentage control of Setaria faberi (Setaria faberi (SETFA) [1]; 14 or 15 DAA)

C#CCC1CC(=O)C(c2c(Cl)cc(-c3ccc(F)cc3F)cc2OC)C1=O (stereo not shown) [Compound A12]
90%: pest or weed control at 30 g/ha [7]
70%: pest or weed control at 30 g/ha [3] | pest or weed control at 30 g/ha [4] | pest or weed control at 30 g/ha [5] | pest or weed control at 30 g/ha [6]
95%: percentage control of Setaria faberi (Setaria faberi (SETFA) [1]; 14 or 15 DAA)
20%: pest or weed control at 30 g/ha (Setaria faberi (SETFA) [2])
100%: pest or weed control at 125 g/ha (Setaria faberi (SETFA) [2]) | pest or weed control at 125 g/ha [3] | pest or weed control at 125 g/ha [4] | pest or weed control at 125 g/ha [5] | pest or weed control at 125 g/ha [6] | pest or weed control at 125 g/ha [7]

C#CCC1CC(=O)C(c2c(F)cc(-c3ccc(F)cc3F)cc2OC)C1=O (stereo not shown) [Compound A21]
85%: percentage control of Setaria faberi (Setaria faberi (SETFA) [1]; 14 or 15 DAA)

C#CCC1CC(=O)C(c2c(C)cc(-c3ccc(Cl)cn3)cc2C)C1=O (stereo not shown) [Compound A2]
100%: pest or weed control at 30 g/ha (Setaria faberi (SETFA) [2]) | pest or weed control at 250 g/ha (Setaria faberi (SETFA) [2]) | pest or weed control at 30 g/ha [3] | pest or weed control at 250 g/ha [3] | pest or weed control at 30 g/ha [4] | pest or weed control at 250 g/ha [4] | pest or weed control at 30 g/ha [5] | pest or weed control at 250 g/ha [5] | pest or weed control at 30 g/ha [6] | pest or weed control at 250 g/ha [6] | pest or weed control at 30 g/ha [7] | pest or weed control at 250 g/ha [7]
90%: percentage control of (phytotoxicity on) Setaria faberi (SETFA) (Setaria faberi (SETFA) [1]; 14 DAA)

C#CCC1C(=O)C(c2c(C)cc(C)cc2C)C(=O)C1CC#C (stereo not shown) [Compound A42]
90%: pest or weed control at 125 g/ha (Setaria faberi (SETFA) [2]) | pest or weed control at 125 g/ha [5]
100%: pest or weed control at 500 g/ha (Setaria faberi (SETFA) [2]; application rate 500 g/ha) | pest or weed control at 125 g/ha [3] | pest or weed control at 500 g/ha ([3]; application rate 500 g/ha) | pest or weed control at 125 g/ha [4] | pest or weed control at 500 g/ha ([4]; application rate 500 g/ha) | pest or weed control at 500 g/ha ([5]; application rate 500 g/ha) | pest or weed control at 125 g/ha [6] | pest or weed control at 500 g/ha ([6]; application rate 500 g/ha) | pest or weed control at 500 g/ha ([7]; application rate 500 g/ha)
80%: pest or weed control at 125 g/ha [7]
